Reference: ChEMBL document CHEMBL5532646, “Discovery of 4-(N-dithiobenzyl piperazine)-1,8-naphthalimide as a potent multi-target antitumor agent with good efficacy, limited toxicity, and low resistance” (Eur J Med Chem, 2024)
Calls of active or inactive are those of the source. No cut-off for these calls is given here.

What was measured:
[1] = Toxicity in nude mouse model xenografted with human T24 cells assessed as pathological change in lung at 15 mg/kg, ip administered once every two days for 21 days; assay type: organism-based, T-24; settings: in vivo, 504 h, time 21 day
MGC-803 = assay: Antiproliferative activity against human MGC-803 cells incubated for 48 hrs by MTT assay; assay type: functional, cell-based; settings: MGC-803, 48 h
T-24 [2] = assay: Antiproliferative activity against human T24 cells incubated for 48 hrs by MTT assay; assay type: functional, cell-based; settings: T-24, 48 h
T-24 [3] = assay: Induction of cell cycle arrest at G2/M phase in human T24 cells at 5 uM incubated for 24 hrs by flow cytometry (reference value: 12.30 %); assay type: functional
T-24 [4] = assay: Antitumor activity against human T24 cells assessed as effect on PI3K-AKT signaling pathway at 5 uM incubated for 24 hrs by TMT/iTRAQ analysis; assay type: functional, cell-based
T-24 [5] = assay: Anti-migratory activity against human T24 cells incubated upto 48 hrs by wound healing assay; assay type: functional, cell-based
T-24 [6] = assay: Downregulation of mTOR level in human T24 cells at 2 to 8 uM incubated for 24 hrs by Western blot analysis; assay type: functional, cell-based; settings: dose 2-8 µM
T-24 [7] = assay: Effect on cell cycle pathway in human T24 cells at 5 uM incubated for 24 hrs by KEGG analysis; assay type: functional, cell-based
T-24 [8] = assay: Induction of cell cycle arrest at G1/S phase in human T24 cells incubated for 24 hrs by flow cytometry; assay type: functional, cell-based; settings: dose 2-8 µM
HK-2 = assay: Antiproliferative activity against human HK-2 cells incubated for 48 hrs by MTT assay; assay type: functional, cell-based; settings: HK-2, 48 h
T-24 [9] = assay: Antitumor activity against human T24 cells assessed as effect on MAPK signaling pathway at 5 uM incubated for 24 hrs by TMT/iTRAQ analysis; assay type: functional, cell-based
T-24 [10] = assay: Induction of cell cycle arrest in human T24 cells assessed as decrease in MCM5 level at 2 to 5 uM by Western blot analysis; assay type: functional, cell-based; settings: dose 2-5 µM
T-24 [11] = assay: Antitumor activity against human T24 cells assessed as effect on ferroptosis signaling pathway at 5 uM incubated for 24 hrs by TMT/iTRAQ analysis; assay type: functional, cell-based
T-24 [12] = assay: Induction of cell cycle arrest at G0/G1 phase in human T24 cells at 8 uM incubated for 24 hrs by flow cytometry (reference value: 75.31 %); assay type: functional
[13] = Toxicity in nude mouse model xenografted with human T24 cells assessed as pathological change in spleen at 15 mg/kg, ip administered once every two days for 21 days; assay type: organism-based, T-24; settings: in vivo, 504 h, time 21 day
T-24 [14] = assay: Upregulation of fatty acid metabolism in human T24 cells at 5 uM incubated for 24 hrs by KEGG analysis; assay type: functional, cell-based
T-24 [15] = assay: Induction of cell cycle arrest at G2/M phase in human T24 cells at 2 uM incubated for 24 hrs by flow cytometry (reference value: 12.30 %); assay type: functional
T-24 [16] = assay: Induction of ferroptosis in human T24 cells assessed as increase in lipid peroxide level at 5 uM incubated for 24 hrs by fluorescence based analysis; assay type: functional, cell-based
T-24 [17] = assay: Induction of ferroptosis in human T24 cells assessed as reduction in mitochondrial cristae at 5 uM incubated for 24 hrs by TEM analysis; assay type: functional, cell-based
T-24 [18] = assay: Induction of ferroptosis in human T24 cells assessed as decrease in GPX4 level at 5 uM incubated for 24 hrs by Western blot analysis; assay type: functional, cell-based
T-24 [19] = assay: Induction of apoptosis in human T24 cells assessed as increase in Bad level at 2 to 8 uM incubated for 24 hrs by Western blot analysis; assay type: functional, cell-based; settings: dose 2-8 µM
T-24 [20] = assay: Induction of ferroptosis in human T24 cells assessed as ruptured mitochondria at 5 uM incubated for 24 hrs by TEM analysis; assay type: functional, cell-based
T-24 [21] = assay: Induction of autophagy in human T24 cells assessed as decrease in P62 level at 2 to 8 uM incubated for 24 hrs by Western blot analysis; assay type: functional, cell-based; settings: dose 2-8 µM
A549 = assay: Antiproliferative activity against human A549 cells incubated for 48 hrs by MTT assay; assay type: functional, cell-based
T-24 [22] = assay: Downregulation of AKT1 level in human T24 cells at 2 to 8 uM incubated for 24 hrs by Western blot analysis; assay type: functional, cell-based; settings: dose 2-8 µM
T-24 [23] = assay: Induction of ferroptosis in human T24 cells assessed as increase in iron level at 5 uM incubated for 24 hrs by FerrOrange probe based confocal microscopy; assay type: functional, cell-based
[24] = Toxicity in nude mouse model xenografted with human T24 cells assessed as pathological change in liver at 15 mg/kg, ip administered once every two days for 21 days; assay type: organism-based, T-24; settings: in vivo, 504 h, time 21 day
HepG2 [25] = assay: Antiproliferative activity against human HepG2 cells xenografted in nude mouse model assessed as tumor inhibition rate at 15 mg/kg, ip administered once every two days for 21 days relative to control; assay type: functional; settings: HepG2, 504 h, time 21 day
HUVEC = assay: Antiproliferative activity against HUVEC cells incubated for 48 hrs by MTT assay; assay type: functional, cell-based; settings: Homo sapiens
T-24 [26] = assay: Anti-migratory activity against human T24 cells at 5 uM by wound healing assay; assay type: functional, cell-based; settings: time <= 48.0 hrs, TDE = time-dependent effect
A549/CDDP = assay: Antiproliferative activity against human A549/DDP cells incubated for 48 hrs by MTT assay; assay type: functional, cell-based
T-24 [27] = assay: Induction of autophagy in human T24 cells at 5 uM incubated for 24 hrs by KEGG analysis; assay type: functional, cell-based
T-24 [28] = assay: Upregulation of ERK1/2 phosphorylation in human T24 cells incubated for 24 hrs by Western blot analysis; assay type: functional, cell-based; settings: dose 2-8 µM
T-24 [29] = assay: Induction of ferroptosis in human T24 cells assessed as increase in ROS level at 5 uM incubated for 24 hrs by DCFH-DA probe based analysis; assay type: functional, cell-based
T-24 [30] = assay: Induction of apoptosis in human T24 cells assessed as increase in cleaved PARP level at 2 to 8 uM incubated for 24 hrs by Western blot analysis; assay type: functional, cell-based; settings: dose 2-8 µM
T-24 [31] = assay: Inhibition of cell proliferation of human T24 cells at 1 to 5 uM incubated for 7 days by colony formation assay; assay type: functional, cell-based; settings: dose 1-5 µM, time 7.0 day
T-24 [32] = assay: Induction of apoptosis in human T24 cells assessed as increase in cleaved caspase-3 level at 2 to 8 uM incubated for 24 hrs by Western blot analysis; assay type: functional, cell-based; settings: dose 2-8 µM
T-24 [33] = assay: Induction of cell cycle arrest at S phase in human T24 cells at 8 uM incubated for 24 hrs by flow cytometry (reference value: 12.39 %); assay type: functional
T-24 [34] = assay: Induction of cell cycle arrest at S phase in human T24 cells at 5 uM incubated for 24 hrs by flow cytometry (reference value: 12.39 %); assay type: functional
T-24 [35] = assay: Downregulation of pAKT1 at S473 level in human T24 cells at 2 to 8 uM incubated for 24 hrs by Western blot analysis; assay type: functional, cell-based; settings: dose 2-8 µM
HepG2 [36] = assay: Antiproliferative activity against human HepG2 cells incubated for 48 hrs by MTT assay; assay type: functional, cell-based; settings: HepG2, 48 h
T-24 [37] = assay: Induction of cell cycle arrest at S phase in human T24 cells at 2 uM incubated for 24 hrs by flow cytometry (reference value: 12.39 %); assay type: functional
[38] = Toxicity in nude mouse model xenografted with human T24 cells assessed as pathological change in heart at 15 mg/kg, ip administered once every two days for 21 days; assay type: organism-based, T-24; settings: in vivo, 504 h, time 21 day
T-24 [39] = assay: Induction of autophagy in human T24 cells assessed as increase in LC-3 level at 2 to 8 uM incubated for 24 hrs by Western blot analysis; assay type: functional, cell-based; settings: dose 2-8 µM

CN(C)CCN1C(=O)c2cccc3c(N4CCN(C(=S)SCc5ccccc5)CC4)ccc(c23)C1=O
Activity [1]: Non-Toxic | IC50 (MGC-803): 5.23 µM | IC50 (T-24 [2]): 3.03 µM | Activity (T-24 [3]): 18.36% | Activity (T-24 [4]): Active | Activity (T-24 [5]): Dose-Dependent Effect | Activity (T-24 [6]): Active | Activity (T-24 [7]): Active | Activity (T-24 [8]): Dose-Dependent Effect | IC50 (HK-2): 14.9 µM | Activity (T-24 [9]): Active | Activity (T-24 [10]): Active | Activity (T-24 [11]): Active | Activity (T-24 [12]): 70.18% | Activity [13]: Non-Toxic | Activity (T-24 [14]): Active | Activity (T-24 [15]): 20.7% | Activity (T-24 [16]): Active | Activity (T-24 [17]): Active | Activity (T-24 [18]): Active | Activity (T-24 [19]): Active | Activity (T-24 [20]): Active | Activity (T-24 [21]): Active | Activity (A549): Active | Activity (T-24 [22]): Active | Activity (T-24 [23]): Active | Activity [24]: Non-Toxic | inhibition in vivo at 15 mg/kg (HepG2 [25]): 50% | IC50 (HUVEC): 16.7 µM | Activity (T-24 [26]): Tde | Activity (A549/CDDP): Active | Activity (T-24 [27]): Active | Activity (T-24 [28]): Dose-Dependent Effect | Activity (T-24 [29]): Active | Activity (T-24 [30]): Active | inhibition (T-24 [31]): Active | Activity (T-24 [32]): Active | Activity (T-24 [33]): 13.21% | Activity (T-24 [34]): 30.58% | Activity (T-24 [35]): Active | IC50 (HepG2 [36]): 3.6 µM | Activity (T-24 [37]): 36.93% | Activity [38]: Non-Toxic | Activity (T-24 [39]): Active
